{"source": "patent US9765187B2", "about": "“MRI contrasting agent for contrasting cancer cell” (SNU R&DB FOUNDATION, priority 2014, dated 2017)", "tested_on": "HCT116 cells", "test": "pH-dependent cellular uptake (flow cytometry, fluorescence)", "assay_type": "cell-based, human", "settings": "fluorescence and flow cytometry", "procedure": "HCT116 cells were exposed to PMNs, InS-NPs and Ce6 at different pHs to verify their cellular uptake respectively. The cells were incubated for 2 h, washed, harvested, and re-suspended with DPBS. In vitro cellular uptake was quantified using a flow cytometer (Beckman, San Jose, Calif., USA). For each sample 10,000 cells (gated events) were counted, and free Ce6 fluorescence was detected with logarithmic settings (FL4; λem=670 nm). Cells were counted as positive if their fluorescence (FL4) was higher than that of cells from an untreated cell suspension. Each experiment was analyzed statistically using the CXP Analysis Program.\nThe tumor cellular uptake of PMNs was monitored at different pH conditions (pH 7.4 and 6.8) using a KODAK In vivo Image Station (Image Station 4000 MM; Kodak, New Haven, Conn., USA) and a flow cytometer (Beckman, San Jose, Calif., USA). HCT116 cells (1×10^5 cells/mL) were incubated with each sample for 2 h in RPMI-1640 medium (pH 7.4 or 6.8, with 1% penicillin-streptomycin) at 37° C. and then analyzed. To ameliorate photobleaching during microscope observation, a drop of anti-fade mounting solution (5% N-propyl gallate, 47.5% glycerol, and 47.5% Tris-HCl, pH 8.4) was added to the cells."}
{"substance": "chlorin E6 [Ce6]", "values": [{"measurement": "cellular uptake at pH 6.8 versus pH 7.4", "value": "not affected by changes in pH"}]}
